This is an account of results in patent publication US10927141B2 (priority 2018, dated 2021).

Read-outs that look alike come from different tables or passages of the source.

The format of data set [1] is physicochemical. The note with it: for Final pH: 37° C., 24 h.
Data set [2] is described as follows: Bulk density for salts of Compound 1. The class given is physicochemical. The note with it: Form A.
The format of data set [3] is physicochemical. The note with it: 1 w. As to the method: For each salt, approximately 5 mg compound was added into an 8 mL glass vial with a multi-hole aluminum foil cap, and kept at 60° C., 40° C./75% RH for 1 week. […] Appearance by visual observation were recorded followed by purity assessment and XPRD data collection on the residual solids.
Data set [4] is classed as physicochemical.
The nature of data set [5]: Dynamic vapor sorption (DVS), gravimetric moisture sorption. It counts as physicochemical. The note with it: at 80% Relative Humidity, 25° C. The procedure: Dynamic Vapor Sorption (DVS) were collected conducted using an SMS DVS Advantage 1 system. For each sample analyzed approximately 10 mg of material was transferred into the DVS instrument and recorded the weight change with respect to the atmospheric humidity at 25° C. using the following parameters: Equilibrium dm/dt: 0.01%/min, (for min: 10 min and max: 180 min); drying setting were 0% RH for 120 min; RH (%) measurement step at 10% and RH (%) measurement step scope of 0-90-0%.

The mark [6] stands for this setting: 40° C./75% RH, listed as Hydrobromide (Form C).
Where [7] appears, read: 60° C., listed as Hydrobromide (Form C).
Setting [8] is: 1.2 million lux-hrs, listed as Hydrobromide (Form C).
Setting [9] is: Dark control, listed as Hydrobromide (Form C).
[10] abbreviates: 40° C./75% RH, listed as Hydrobromide (Form A).
The mark [11] stands for this setting: 60° C., listed as Hydrobromide (Form A).
Where [12] appears, read: 1.2 million lux-hrs, listed as Hydrobromide (Form A).
[13] abbreviates: Dark control, listed as Hydrobromide (Form A).

Regarding `COCC1(O)CCC2(C)C(CCC3C2CCC2(C)C(C(=O)Cn4ccnc4)CCC32)C1.Nc1ccc(C(=O)O)c(O)c1` (stereo not drawn) [p-Aminosalicylate (Form A)], the “Final pH (FaSSIF)” value in data set [1] (FaSSIF (original pH = 6.51), after solubility test) is given as 5.12. In addition, in data set [1] (FeSSIF (original pH = 4.99), after solubility test), the “Final pH (FeSSIF)” value is given as 5.06. Moreover, in data set [1] (SGF (original pH = 1.82), after solubility test), the “Final pH (SGF)” value is given as 3.73.

In the case of `O=C(O)C(O)C(O)C(=O)O` (stereo not drawn) [Tartrate], in data set [2], the “Bulk Density” value was 0.13 g/mL and the “Tapped Density” value was found to be 0.32 g/mL.

With `Br.COC[C@@]1(O)CC[C@@]2(C)[C@@H](CC[C@@H]3[C@@H]2CC[C@]2(C)[C@@H](C(=O)Cn4ccnc4)CC[C@@H]32)C1` [Compound 1 HBr (Form C)], the Final purity in data set [3] (setting [6]) is 98.4; in data set [3] (setting [7]), 98.1; in data set [4] (setting [8]), 98.1; in data set [4] (setting [9]), 98.0. Moreover, the XRPD pattern result in data set [3] (setting [6]), in data set [3] (setting [7]), in data set [4] (setting [8]) and in data set [4] (setting [9]) was “Form C + B” each time. Further, the “Final pH” value in data set [1] (FaSSIF (original pH = 6.51), listed as Hydrobromide (Form C)) is listed as 4.90; in data set [1] (FeSSIF (original pH = 4.99), listed as Hydrobromide (Form C)) it was 5.05; in data set [1] (SGF (original pH = 1.82), listed as Hydrobromide (Form C)), 1.99. For the same compound, the gravimetric moisture sorption entry in data set [5] was “about 0.25 % (by weight)”.

With `Br.COCC1(O)CCC2(C)C(CCC3C2CCC2(C)C(C(=O)Cn4ccnc4)CCC32)C1` (stereo not drawn) [Compound 1 HBr (Form B)], the Final purity was 98.9 in data set [3] (40° C./75% RH), 98.8 in data set [3] (60° C.), 98.4 in data set [4] (1.2 million lux-hrs) and 97.8 in data set [4] (Dark control). In addition, the XRPD pattern entry in data set [3] (40° C./75% RH), in data set [3] (60° C.), in data set [4] (1.2 million lux-hrs) and in data set [4] (Dark control) was “Form B” each time. In addition, the “Final pH” value in data set [1] (FaSSIF (original pH = 6.51)) amounted to 5.51; in data set [1] (FeSSIF (original pH = 4.99)) it was 4.89; in data set [1] (SGF (original pH = 1.82)) it was 1.89. In addition, in data set [5], the gravimetric moisture sorption result was “about 0.2 % (by weight)”.

With `COC[C@@]1(O)CC[C@@]2(C)[C@@H](CC[C@@H]3[C@@H]2CC[C@]2(C)[C@@H](C(=O)Cn4ccnc4)CC[C@@H]32)C1.O=C(O)CC(O)(CC(=O)O)C(=O)O` [Compound 1 Citrate (Form B)], the Final purity stood at 98.3 in data set [3] (40° C./75% RH), 97.7 in data set [3] (60° C.), 99.3 in data set [4] (1.2 million lux-hrs) and 99.1 in data set [4] (Dark control). In addition, the XRPD pattern entry in data set [3] (40° C./75% RH), in data set [3] (60° C.), in data set [4] (1.2 million lux-hrs) and in data set [4] (Dark control) was “Form B” throughout. Also, the gravimetric moisture sorption entry in data set [5] is recorded as “about 2.8 % (by weight)”.

Consider `O=C(O)CC(O)(CC(=O)O)C(=O)O` [Citrate], for which, in data set [2], the “Bulk Density” value was found to be 0.49 g/mL and the “Tapped Density” value worked out at 0.70 g/mL.

In the case of `COCC1(O)CCC2(C)C(CCC3C2CCC2(C)C(C(=O)Cn4ccnc4)CCC32)C1.O=P(O)(O)O` (stereo not drawn) [Phosphate], in data set [2], the “Bulk Density” value is listed as 0.15 g/mL and the “Tapped Density” value is 0.33 g/mL.

Take `COC[C@@]1(O)CC[C@@]2(C)[C@@H](CC[C@@H]3[C@@H]2CC[C@]2(C)[C@@H](C(=O)Cn4ccnc4)CC[C@@H]32)C1.O=C(O)CC(O)(CC(=O)O)C(=O)O` [Compound 1 Citrate (Form A)]: the Final purity in data set [3] (40° C./75% RH) is on record as 99.4; in data set [3] (60° C.), 99.5; in data set [4] (1.2 million lux-hrs), 99.5; in data set [4] (Dark control) it was 99.5. For the same compound, the XRPD pattern entry in data set [3] (40° C./75% RH), in data set [3] (60° C.), in data set [4] (1.2 million lux-hrs) and in data set [4] (Dark control) was “Form A” throughout. Further, the gravimetric moisture sorption result in data set [5] is “about 3.6 % (by weight)”.

Take `Br.COC[C@@]1(O)CC[C@@]2(C)[C@@H](CC[C@@H]3[C@@H]2CC[C@]2(C)[C@@H](C(=O)Cn4ccnc4)CC[C@@H]32)C1` [HBr]: in data set [2], the “Bulk Density” value was determined as 0.27 g/mL and the “Tapped Density” value is 0.50 g/mL.

Regarding `Br.COC[C@@]1(O)CC[C@@]2(C)[C@@H](CC[C@@H]3[C@@H]2CC[C@]2(C)[C@@H](C(=O)Cn4ccnc4)CC[C@@H]32)C1` [Compound 1 HBr (Form A)], the Final purity was determined as 98.2 in data set [3] (setting [10]), 98.0 in data set [3] (setting [11]), 98.2 in data set [4] (setting [12]) and 97.9 in data set [4] (setting [13]). The XRPD pattern entry in data set [3] (setting [10]), in data set [3] (setting [11]), in data set [4] (setting [12]) and in data set [4] (setting [13]) was “Form A” each time. The “Final pH” value is given as 4.11 in data set [1] (FaSSIF (original pH = 6.51), listed as Hydrobromide (Form A)); 5.01 in data set [1] (FeSSIF (original pH = 4.99), listed as Hydrobromide (Form A)); 1.91 in data set [1] (SGF (original pH = 1.82)). Also, in data set [5], the gravimetric moisture sorption entry is given as “about 1.1 % (by weight)”.

Take `COCC1(O)CCC2(C)C(CCC3C2CCC2(C)C(C(=O)Cn4ccnc4)CCC32)C1.O=C(O)CC(O)C(=O)O` [Compound 1 L-Malate (Form A)]: in data set [5], the gravimetric moisture sorption entry is reported as “about 2.0 % (by weight)”.

Regarding `COCC1(O)CCC2(C)C(CCC3C2CCC2(C)C(C(=O)Cn4ccnc4)CCC32)C1.O=P(O)(O)O` (stereo not drawn) [Compound 1 Phosphate (Form A)], the gravimetric moisture sorption entry in data set [5] is given as “about 2.1 % (by weight)”.

With `COCC1(O)CCC2(C)C(CCC3C2CCC2(C)C(C(=O)Cn4ccnc4)CCC32)C1.O=C(O)C(Cl)Cl` (stereo not drawn) [Compound 1 Dichloroacetate (Form A)], the gravimetric moisture sorption result in data set [5] was “about 1.8 % (by weight)”.

`COC(=O)c1ccc2c(c1)NC(=O)/C2=C(\Nc1ccc(N(C)C(=O)CN2CCN(C)CC2)cc1)c1ccccc1.CS(=O)(=O)O` [Compound 1 Mesylate (Form A)]: in data set [5], the gravimetric moisture sorption entry was “about 3.4 % (by weight)”.
